Results reported in patent publication US5567704A, “R-enatiomerically pure hydroxylated xanthine compounds to treat baldness” (priority 1995, dated 1996).

Assays:
nu/nu mice = experiment: nude mouse hair studies, topical application; assay type: in vivo; conditions: second experiment; topical twice daily, 34 days
From the text: This example illustrates nude mouse hair studies involving topical application of CT1501R. Six to eight week old, female, nu/nu mice from Charles River Laboratories were housed at Biosupport Research Support Services (Seattle, Wash.) in autoclaved micro isolator units with hyperchlorinated autoclaved water, irradiated rodent chow and kept under a laminar flow hood. Caging was changed weekly, and water was changed twice weekly. The mice were acclimated for 5 days before beginning each study.
The first topical formulation was prepared by adding CT1501R to a heated hydrophilic ointment (USP) at a 1% concentration, and allowed to solidify.
Nude mice were painted twice daily for 16 days with the first topical formulation of CT1501R on the left flank and another compound in the same base on the right flank with sterile applicators. Mice were handled under the laminar flow hood with applicator wearing face mask and sterile gloves. After 16 days, one mouse was sacrificed by cervical dislocation and skin biopsies were taken of the treated areas of the shoulder/flank and from the non-treated area of the dorsal pelvis (rump). Specimens were placed in 10% buffered formalin solution. Biopsies were sent to a veterinary dermopathologist for histopathology. Six weeks following treatment, a second mouse was euthanatized and biopsied the same as the first. Samples were sent for histopathology.
In a second experiment, topical application of CT1501R was performed along with a commercial topical minoxidil preparation (Rogaine®, Upjohn) that is approved for a hair growth indication. Five to six week old, female, nu/nu mice from Bantin and Kingman Universal were housed at Biosupport Research Support Services (Seattle, Wash.) in autoclaved micro isolator units with hyper chlorinated autoclaved water, irradiated rodent chow and kept under a laminar flow hood. Caging was changed weekly, and water was changed twice weekly. Mice were acclimated for 7 days before beginning study.
CT1501R, and two other compounds were prepared in a topical formulation of 60% ETOH, 10% water and 30% PEG along with vehicle only. Minoxidil was purchased as the commercial preparation Rogaine® from a local pharmacy. Rogaine® is sold in the same formulation base. Mice were identified by unique tail markings specific for each test article. Two mice per group were treated with CT1501R and another compound. One mouse was treated with each of vehicle and minoxidil. The mice were handled under the laminar flow hood with the applicator wearing face mask and sterile gloves. Each mouse was treated twice daily with a separate sterile applicator to avoid contamination of the solutions or the mice. All mice were applied a strip of appropriate test article along the center line of the back from the base of the skull to the base of the tail, approximately 1.5 cm wide. After 34 days all mice were euthanatized by overdose of halothane anesthesia. Skin biopsies were taken from each of the 7 mice over the nape of the neck between the scapulas (approximate size was 1×1.5 cm). All specimens were blotted on gauze to remove blood and fluids, affixed to a cut piece of wooden tongue depressor, and placed specimen side down in separately marked containers with 10% buffered formalin. Specimens were shipped to a veterinary dermatopathologist for qualitative histopathological determinations.

[1] = tested on: lysophosphatidic acid acyl transferase (LPAAT); experiment: in vitro inhibition of LPAAT in 3T3 Ras-transformed fibroblasts stimulated with IL-1β; assay type: cell-based; conditions: 3T3 Ras-transformed fibroblasts, IL-1β, FIG. 17
Method: FIG. 17 illustrates a comparison of CT1501R, its S isomer CT1501S, and PTX on in vitro inhibition of lysophosphatidic acid acyl transferase (LPAAT), an enzyme involved in second messenger signaling. […] LPAAT activity was determined in 3T3 Ras-transformed fibroblasts stimulated with IL-1β.
One in vitro assay measures inhibition of the relevant enzymes lysophosphatidic acid acyltransferase (LPAAT) and phosphatidic acid phosphoryl hydrolase (PAPH). The assay involves incubating of target cells with a primary stimulus (e.g., a variety of cytokines, growth factors, oncogene products, putative therapeutic agents, irradiation, viral infection, toxins, bacterial infection and the products thereof, and any stimulus which, if not counteracted, has a deleterious effect on the target cell) in the presence or absence of an inventive compound at varying dosage levels. Target cells include, for example, subcellular entities, such as, microsomes derived from mesenchymal and/or ectodermal cells, particularly microsomes from marrow stromal cells or human or rat mesangial cells; microsomes or synaptosomes derived from brain; plasma membrane-enriched microsomes, plasma membranes derived as described in Bursten et at. (J. Biol. Chem. 226:20732-20743, 1991 ), or detergent-solubilized microsomes; synaptosomes, and membranes or other cell preparations solubilized using, for example, NP-40, Miranal, SDS or other neutral detergents; and detergent-solubilized, recombinant, or further purified preparations of cell proteins, including the proteins LPAAT and/or PAPH. After incubation for short periods of time, cell lipids are extracted and assayed by […] according to standard procedures. Briefly, lipids are extracted using, for example, chloroform:methanol 2:1 (v/v), and the extracts are then subjected to HPLC as described in Bursten and Harris, Biochemistry 30:6195-6203, 1991. A Rainin® mu-Porasil column is used with a 3:4 hexane:propanol organic carrier and a 1-10% water gradient during the first 10 minutes of separation. Detection of the peaks in the elution pattern is by absorption in the range of ultraviolet which detects isolated double bonds. The relevant peaks of unsaturated PA and DAG are shown in the elution pattern. It is important to note that the assay method permits discrimination between various forms of PA and DAG so that those relevant to the pathway affected by the (R) or (S) compounds of the invention can be measured directly. Confirmation of the nature of the acyl substituents of these components is accomplished using fast-atom bombardment mass spectroscopy. Thus, the relevant unsaturated (non-arachidonic) PA and DAG subspecies may be detected. The time periods employed are 5-60 seconds after stimulation with the primary stimulus, such as a cytokine. This technique permits assessment of the levels of various lipid components as a function of time.

[2] = tested on: PBMC (peripheral blood mononuclear cells); experiment: two-way mixed lymphocyte reaction (MLR); assay type: cell-based, human; conditions: FIG. 1
From the text: Various in vitro assays can be used to measure effects of the inventive compounds to module immune activity and have antitumor activity using a variety of cellular types. For example, a mixed lymphocyte reaction (MLR) provides a valuable screening tool to determine biological activity of each inventive compound. In the MLR, PBMCs (peripheral blood mononuclear cells) are obtained by drawing whole blood from healthy volunteers in a heparinized container and diluted with an equal volume of hanks balanced salt solution (HBSS). This mixture is layered on a sucrose density gradient, such as a Ficoll-Hypaque® gradient (specific gravity 1.08), and centrifuged at 1000× g for 25 minutes at room temperature or cooler. PBMC are obtained from a band at a plasma-Ficoll interface, separated and washed at least twice in a saline solution, such as HBSS. Contaminating red cells are lysed, such as by ACK lysis for 10 min at 37° C., and the PBMCs are washed twice in HBSS. The pellet of purified PBMCs is resuspended in complete medium, such as RPMI 1640 plus 20% human inactivated serum. Proliferative response of PBMC to allogeneic stimulation is determined in a two-way MLR performed in a 96-well microtiter plate. […] At the conclusion of the incubation tritiated thymidine is added (for example, 1 μCi/well of 40 to 60 Ci/mmole) and proliferation determined by liquid scintillation counting. […]

stromelysin/PUMP-1 = experiment: PUMP-1 activity induced by IL-1; assay type: cell-based; conditions: induced by 100 U/ml of IL-1
From the text: Metalloproteases mediate tissue damage such as glomerular diseases of the kidney, joint destruction in arthritis, and lung destruction in emphysema, and play a role in tumor metastases. Three examples of metalloproteases include a 92 kD type V gelatinase induced by TNF, IL-1 and PDGF plus bFGF, a 72 kD type IV collagenase that is usually constitutive and induced by TNF or IL-1, and a stromelysin/PUMP-1 induced by TNF and IL-1. The inventive compounds can inhibit TNF or IL-1 induction of the 92 kD type V gelatinase inducable metalloprotease. Moreover, CT 1501R reduced PUMP- 1 activity induced by 100 U/ml of IL-1 to 15% of its control levels. […] Accordingly, the inventive compounds prevent induction of certain metalloproteases induced by IL-1 or TNF and are not involved with constitutively produced proteases (e.g., 72 kD type IV collagenase) involved in normal tissue remodeling.

[3] = metabolized in humans; cited from earlier work
smooth muscle cell = experiment: smooth muscle proliferation stimulated by PDGF and IL-1; assay type: cell-based; conditions: PDGF and IL-1; drug added two hours prior, FIG. 4
From the text: CT1501R and PTX were separately added to the cells two hours prior to activation with PDGF and IL-1.

In the case of `Nc1cc(N2CCCCC2)nc(N)[n+]1[O-]` [minoxidil, reference compound], the “hair follicles, subjective histopathological examination” value (nu/nu mice) is reported as “fair response to treatment”.

With `C[C@H](O)CCCCn1c(=O)c2c(ncn2C)n(C)c1=O` [CT1501S] the “inhibition of LPAAT enzyme activity” value [1] was “only CT1501R significantly inhibited enzyme activity”.

For `CC(=O)CCCCn1c(=O)c2c(ncn2C)n(C)c1=O` [PTX, 1-(5-oxohexyl)-3,7-dimethylxanthine, reference compound], the “inhibition of LPAAT enzyme activity” value [1] was “only CT1501R significantly inhibited enzyme activity”, the “proliferative response of PBMC to allogeneic stimulation” value [2] was “showed dose-response activity” and the “PUMP-1 activity, % of control levels” value (stromelysin/PUMP-1) was 95%. The “metabolic conversion of PTX” value [3] was “converted almost exclusively to the S enantiomer of MI” and the “inhibition of smooth muscle cell proliferation” value (smooth muscle cell) was “inhibited smooth muscle cell proliferation at the higher doses tested”.
